Values of other authors, collected in US20240207217A1, “IMPROVED TREATMENT METHODS FOR CABAZITAXEL” (ORBICULAR PHARMACEUTICAL TECHNOLOGIES PRIVATE LIMITED, priority 2020, published 2024).
“Also recorded” adds a separate entry of the source.

Legend:
[1] = IV administration; high clearance and small Vd
complement = conditions: enzyme-linked immunosorbent assays
[2] = clinical trials in patients with cancer

Row | Compound | Solubility in water | Half-life (t ½) [1] | Complement activation in vitro (in words) (complement) | Incidence of infusion-site adverse events (ISAEs) [2]
1 | CC(=O)O[C@H]1C(=O)[C@@]2(C)[C@H]([C@H](OC(=O)c3ccccc3)[C@]3(O)C[C@H](OC(=O)[C@H](O)[C@@H](NC(=O)c4ccccc4)c4ccccc4)C(C)=C1C3(C)C)[C@]1(OC(C)=O)CO[C@@H]1C[C@@H]2O [paclitaxel] | poorly soluble | – | – | –
2 | sulfobutyl-ether-beta-cyclodextrin [SBCD] | – | quite short | – | –
3 | Poly-oxyethylene-sorbitan monooleate [polysorbate 80] | – | – | cause complement activation; also recorded: could activate the complement system | –
4 | CO[C@H]1C(=O)[C@]2(C)[C@@H](OC)C[C@H]3OC[C@@]3(OC(C)=O)[C@H]2[C@H](OC(=O)c2ccccc2)[C@]2(O)C[C@H](OC(=O)[C@H](O)[C@@H](NC(=O)OC(C)(C)C)c3ccccc3)C(C)=C1C2(C)C [cabazitaxel] | poorly soluble | – | – | –
5 | CC(=O)O[C@@]12CO[C@@H]1C[C@H](O)[C@@]1(C)C(=O)[C@H](O)C3=C(C)[C@@H](OC(=O)[C@H](O)[C@@H](NC(=O)OC(C)(C)C)c4ccccc4)C[C@@](O)([C@@H](OC(=O)c4ccccc4)[C@H]21)C3(C)C [docetaxel] | poorly soluble | – | cause complement activation | 3-4%
